Test results from the NIST ThermoML archive (doi:10.1016/j.jct.2016.03.026).

Assay: xn = mol fraction of the nth substance listed
Details: 293.15 K, Fluid (supercritical or subcritical phases), Vibrating tube method, x1 = 0.97

O=C=O [carbon dioxide] + CO
Details | mass density [kg/m3]
8600 kPa | 847.4
8625 kPa | 847.69
8650 kPa | 848.04
8675 kPa | 848.37
8700 kPa | 848.68
8725 kPa | 849.03
8750 kPa | 849.37
8775 kPa | 849.67
8800 kPa | 849.99
8825 kPa | 850.29
8850 kPa | 850.6
8875 kPa | 850.92
8900 kPa | 851.22
8925 kPa | 851.5
8950 kPa | 851.81
8975 kPa | 852.08
9000 kPa | 852.41
9025 kPa | 852.71
9050 kPa | 852.98
9075 kPa | 853.28
9100 kPa | 853.57
9125 kPa | 853.85
9150 kPa | 854.08
9175 kPa | 854.24
9200 kPa | 854.32
9225 kPa | 854.58
9250 kPa | 854.9
9275 kPa | 855.22
9300 kPa | 855.55
9325 kPa | 855.89
9350 kPa | 856.22
9375 kPa | 856.46
9400 kPa | 856.82
9425 kPa | 857.09
9450 kPa | 857.44
9475 kPa | 857.69
9500 kPa | 858.02
9525 kPa | 858.28
9550 kPa | 858.59
9575 kPa | 858.84
9600 kPa | 859.17
9625 kPa | 859.48
9650 kPa | 859.74
9675 kPa | 860.01
9700 kPa | 860.28
9725 kPa | 860.54
9750 kPa | 860.76
9775 kPa | 860.99
9800 kPa | 861.24
9825 kPa | 861.54
9850 kPa | 861.78
9875 kPa | 862
9900 kPa | 862.27
9925 kPa | 862.54
9950 kPa | 862.76
9975 kPa | 863.01
10000 kPa | 863.3
10025 kPa | 863.5
10050 kPa | 863.76
10075 kPa | 864
10100 kPa | 864.22
10125 kPa | 864.49
10150 kPa | 864.74
10175 kPa | 865.06
10200 kPa | 865.34
10225 kPa | 865.63
10250 kPa | 865.87
10275 kPa | 866.12
10300 kPa | 866.45
10325 kPa | 866.67
10350 kPa | 866.94
10375 kPa | 867.18
10400 kPa | 867.43
10425 kPa | 867.68
10450 kPa | 867.99
10475 kPa | 868.24
10500 kPa | 868.43
10525 kPa | 868.74
10550 kPa | 868.99
10575 kPa | 869.23
10600 kPa | 869.48
10625 kPa | 869.76
10650 kPa | 869.97
10675 kPa | 870.3
10700 kPa | 870.54
10725 kPa | 870.79
10750 kPa | 871.03
10775 kPa | 871.28
10800 kPa | 871.52
10825 kPa | 871.77
10850 kPa | 872.01
10875 kPa | 872.27
10900 kPa | 872.51
10925 kPa | 872.75
10950 kPa | 873
10975 kPa | 873.24
11000 kPa | 873.49
11025 kPa | 873.73
11050 kPa | 873.98
11075 kPa | 874.22
11100 kPa | 874.47
11125 kPa | 874.72
11150 kPa | 874.96
11175 kPa | 875.21
11200 kPa | 875.45
11225 kPa | 875.7
11250 kPa | 875.94
11275 kPa | 876.2
11300 kPa | 876.43
11325 kPa | 876.68
11350 kPa | 876.93
11375 kPa | 877.16
11400 kPa | 877.38
11425 kPa | 877.58
11450 kPa | 877.85
11475 kPa | 878.07
11500 kPa | 878.33
11525 kPa | 878.56
11550 kPa | 878.81
11575 kPa | 879
11600 kPa | 879.3
11625 kPa | 879.46
11650 kPa | 879.71
11675 kPa | 879.95
11700 kPa | 880.2
11725 kPa | 880.38
11750 kPa | 880.63
11775 kPa | 880.86
11800 kPa | 881.1
11825 kPa | 881.34
11850 kPa | 881.54
11875 kPa | 881.77
11900 kPa | 882
11925 kPa | 882.25
11950 kPa | 882.46
11975 kPa | 882.66
12000 kPa | 882.9
12025 kPa | 883.12
12050 kPa | 883.38
12075 kPa | 883.57
12100 kPa | 883.79
12125 kPa | 884.05
12150 kPa | 884.26
12175 kPa | 884.46
12200 kPa | 884.7
12225 kPa | 884.95
12250 kPa | 885.18
12275 kPa | 885.36
12300 kPa | 885.6
12325 kPa | 885.85
12350 kPa | 886.09
12375 kPa | 886.26
12400 kPa | 886.49
12425 kPa | 886.67
12450 kPa | 886.91
12475 kPa | 887.16
12500 kPa | 887.33
12525 kPa | 887.57
12550 kPa | 887.8
12575 kPa | 887.98
12600 kPa | 888.22
12625 kPa | 888.41
12650 kPa | 888.63
12675 kPa | 888.88
12700 kPa | 889.11
12725 kPa | 889.29
12750 kPa | 889.53
12775 kPa | 889.77
12800 kPa | 889.94
12825 kPa | 890.19
12850 kPa | 890.37
12875 kPa | 890.6
12900 kPa | 890.84
12925 kPa | 891.01
12950 kPa | 891.25
12975 kPa | 891.46
13000 kPa | 891.66
13025 kPa | 891.9
13050 kPa | 892.08
13075 kPa | 892.32
13100 kPa | 892.5
13125 kPa | 892.74
13150 kPa | 892.96
13175 kPa | 893.13
13200 kPa | 893.3
13225 kPa | 893.53
13250 kPa | 893.74
13275 kPa | 893.95
13300 kPa | 894.19
13325 kPa | 894.36
13350 kPa | 894.53
13375 kPa | 894.75
13400 kPa | 894.97
13425 kPa | 895.18
13450 kPa | 895.34
13475 kPa | 895.52
13500 kPa | 895.75
13525 kPa | 895.96
13550 kPa | 896.13
13575 kPa | 896.33
13600 kPa | 896.51
13625 kPa | 896.67
13650 kPa | 896.86
13675 kPa | 897.09
13700 kPa | 897.29
13725 kPa | 897.47
13750 kPa | 897.68
13775 kPa | 897.85
13800 kPa | 898.05
13825 kPa | 898.26
13850 kPa | 898.41
13875 kPa | 898.62
13900 kPa | 898.8
13925 kPa | 898.97
13950 kPa | 899.2
13975 kPa | 899.38
14000 kPa | 899.55
14025 kPa | 899.76
14050 kPa | 899.94
14075 kPa | 900.17
14100 kPa | 900.34
14125 kPa | 900.51
14150 kPa | 900.7
14175 kPa | 900.95
14200 kPa | 901.13
14225 kPa | 901.31
14250 kPa | 901.48
14275 kPa | 901.66
14300 kPa | 901.83
14325 kPa | 902.05
14350 kPa | 902.18
14375 kPa | 902.38
14400 kPa | 902.56
14425 kPa | 902.77
14450 kPa | 902.92
14475 kPa | 903.13
14500 kPa | 903.28
14525 kPa | 903.44
14550 kPa | 903.67
14575 kPa | 903.82
14600 kPa | 904.05
14625 kPa | 904.2
14650 kPa | 904.42
14675 kPa | 904.58
